From patent US6352976B1, “Selective inhibitors of MMP-12” (Aventis Pharmaceuticals Inc., priority 1998, dated 2002)

Biological target: T1, MMP-12 (macrophage metalloelastase) (Homo sapiens, UniProt P39900)
T1 construct: made in house
Assay: Determination of the inhibition constant (Ki) for MMP-12, fluorogenic substrate
Assay type: biochemical
Conditions: compared to their N-methylamide derivatives (Examples 6 and 7); from Ki values of Table 2
Method: MMP-12 (EC3.4.24.65) was cloned, expressed and purified according to Shapiro, S. D. et al., J Biol. Chem. 268, 23824-23829 (1993). […] Aliquots of MMP-12 were stored at −70° C.
The potency of inhibitors of MMP-12 was measured using either quartz cuvettes or microtiter plates. The activity of MMP-12 was measured using a fluorogenic substrate, Mca-Pro-Leu-Gly-Leu-Dpa-Ala-Arg-NH2 SEQ ID NO1, Knight, C. G. et al., FEBS Lett. 296,263-266 (1992), at 25° C. in an assay buffer containing 50 mM Tris, pH 7.6, 0.2 M sodium chloride, 50 mM calcium chloride, and 0.02% Brij-35. The increase in fluorescence due to cleavage of Gly-Leu peptide bond by MMP-12 was monitored with a Perkin-Elmer LS50B Fluorimeter (λex 328 nm, λem 393 nm, excitation slit 2.5, emission slit 10) for the cuvette assay and with a Molecular Devices Fmax fluorescence plate reader (λex 320 nm, λem 405 nm) for the microtiter plate assay. Substrate and inhibitor stock solutions were made in N,N-dimethylformamide (DMF) and 0.1% HCl-DMF, respectively.
Ki values were determined using the cuvette method by preparing a series of intermediate inhibitors solutions in 0.1% HCl-DMF and mixing the inhibitor with substrate (final concentration 2 μM) in a quartz cuvette containing 2 ml of assay buffer. MMP-12 was added to start the reaction at a concentration of 2 nM and progress curves were generated. For routine measurement of a Ki value for a reversible competitive inhibitor, the initial rates in the presence of at least four inhibitor concentrations (two concentrations above and two concentrations below the Ki) were measured [S]=2 μM (<<Km) and [MMP-12]=2 nM. Under these conditions, the measured Ki,app is close to the true Ki.
Ki values were determined using the microtiter plate method in a manner similar to that described for the cuvette method with some modifications. Four different inhibitor concentrations (50 μl in assay buffer) of each compound were added to separate wells of a microtiter plate and substrate was added (100 μl) to get a final concentration of […]. MMP-12 was added to a final concentration of 2 nM (50 μl) to start the reaction. Cleavage of substrate was recorded every 30 seconds for 30 minutes and progress curves were generated.
The Ki for a competitive inhibitor was calculated using: V0/Vi=(1+[I]/Ki,app) and Ki=Ki,app/(1+[S]/Km), where V0 is the initial rate in the absence of inhibitor, Vi is the initial rate in the presence of inhibitor at the concentration of [I], [S] is the substrate concentration, and Km is the Michaelis constant. If slow binding is observed (i.e. if the approach to the binding equilibrium is slow), the final steady-state rate rather than the initial rate is taken as Vi.

T1 sequence (P39900 106-263 limits assumed): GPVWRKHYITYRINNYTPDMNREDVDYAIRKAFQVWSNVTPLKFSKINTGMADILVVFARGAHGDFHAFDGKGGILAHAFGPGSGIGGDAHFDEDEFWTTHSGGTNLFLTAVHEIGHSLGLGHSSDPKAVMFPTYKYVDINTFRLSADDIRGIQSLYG

| SMILES | selectivity for MMP-12 over MMP-1, MMP-2, and MMP-3 |
| --- | --- |
| CCCC(S)C(=O)N[C@@H](CCc1ccccc1)C(=O)N[C@@H](Cc1ccccc1)C(=O)O (some centres unmarked) [Example 1, 2-Mercapto-pentanoyl-(L)-homo-phenylalanyl-(L)-phenylalanine] | selective for MMP-12 over MMP-1, MMP-2, and MMP-3 |
| CC(C)[C@H](S)C(=O)N[C@@H](CCc1ccccc1)C(=O)N[C@@H](Cc1ccccc1)C(=O)O [Example 2, (S)-2-Mercapto-3-methylbutyroyl-(L)-homo-phenylalanyl-(L)-phenylalanine] | selective for MMP-12 over MMP-1, MMP-2, and MMP-3 |
